system: SREBF1-knockout cells; experiment: Cell death in SREBF1-knockout cells; format: cell-based, human; conditions: SREBF1-knockout MDA-MB-453 and BT474 cells; Torin 1 μM; GDC-0941 2 μM; MK-2206 2 μM; CCI-779 0.5 μM
Method: FIG. 9 A-F. SREBP1 protects cells from ferroptosis. (A) MCF7 cells were treated as indicated. RSL3, 5 μM; CCI-779, 0.5 μM. Cell lysates were collected 24 h after treatment for Western blot detecting […], total S6K, SREBP1(P) and SREBP1(m). (B) Cells were pretreated with 5 μM Fatostatin A overnight and treated as indicated. RSL3, 0.5 μM for BT474 cells, 1 μM for MDA-MB-453 and 5 μM for MCF7 cells; Fer-1, 1 μM. (C) Efficiency of SREBF1 Knockout in BT474, MDA-MB-453, and MCF7 cells was monitored by western blot. (D) MCF7 cells were treated as indicated. RSL3, 5 μM; Fer-1, 1 μM. (E) Cells were treated as indicated. RSL3, 1 μM for MDA-MB-453 cells and 0.5 μM for BT474 cells; Fer-1, 1 μM; Torin, 1 μM; GDC-0941, 2 μM; MK-2206, 2 μM; CCI-779, 0.5 μM. (F) SREBP1m was overexpressed in MCF7, MDA-MB-453 and A549 cells and determined by western blot. Cells were treated as indicated. RSL3, 5 μM for MCF7 cells, 0.5 μM for MDA-MB-453 cells and 0.25 μM for A549 cells; CCI-779, 0.5 μM.
Cells were seeded in plates at appropriate cell density and incubated overnight at 37° C. containing 5% C02, and then subjected to treatments as described in individual experiments. Cells were stained with hoechst 33342 (0.1 μg/ml) to monitor total cell number, and with Sytox Green (5 nM) to monitor cell death. Culture plates were read by Cytation 5 at indicated time points. Percentage of cell death was calculated as Sytox Green-positive cell number over total cell number. For 3D spheroids, cell viability was determined a commercially available cell viability assay (Promega, Madison, WI, USA) following the manufacturer's instructions. Viability was calculated by normalizing ATP levels of samples to that of negative controls (spheroids in normal full media without treatment).
Keap1, NRF2 and SREBP1 depleted cells were generated with a CRISPR/Cas9-mediated knockout system. sgRNA sequences were cloned into LentiCRISPRV2. SCD1 depleted cells were generated with CRISPR/Cas9 mediated knockout system, using stable Cas9 expression cells and sanger CRISPR clone. […]

SMILES	further enhancement of RSL3-induced ferroptosis
CO[C@H]1C[C@@H]2CC[C@@H](C)[C@@](O)(O2)C(=O)C(=O)N2CCCC[C@H]2C(=O)O[C@H]([C@H](C)C[C@@H]2CC[C@@H](OC(=O)C(C)(CO)CO)[C@H](OC)C2)CC(=O)[C@H](C)/C=C(\C)[C@@H](O)[C@@H](OC)C(=O)[C@H](C)C[C@H](C)/C=C/C=C/C=C/1C [CCI-779, Temsirolimus]	failed to further enhance RSL3-induced ferroptosis
CS(=O)(=O)N1CCN(Cc2cc3nc(-c4cccc5[nH]ncc45)nc(N4CCOCC4)c3s2)CC1 [GDC-0941]	failed to further enhance RSL3-induced ferroptosis
NC1(c2ccc(-c3nc4ccn5c(=O)[nH]nc5c4cc3-c3ccccc3)cc2)CCC1 [MK-2206]	failed to further enhance RSL3-induced ferroptosis
CCC(=O)N1CCN(c2ccc(-n3c(=O)ccc4cnc5ccc(-c6cnc7ccccc7c6)cc5c43)cc2C(F)(F)F)CC1 [Torin]	failed to further enhance RSL3-induced ferroptosis
